Experiments:
memory CD4+ T cells = assay: Ki67 expression by whole blood flow cytometry, memory CD4+ T cells; type: in vivo, rhesus macaque; conditions: for Ki67 expression in memory CD4+ T cells: AZD5582 treated infant RMs
Description: The ncNF-κB pathway plays an important role in regulating T cell differentiation without causing broad systemic inflammation ([22]). We have previously observed a stimulatory effect on peripheral T cells following AZD5582 treatment specifically measurable through increased intracellular Ki67 expression ([17]). To further assess the effect of AZD5582 on infant RMs, flow cytometry was performed longitudinally on whole blood on the day of doses 1, 3, 6, and 9 and both 48 to 72h and 7 days after each of these doses. These time points were selected to allow longitudinal evaluation while remaining within blood volume constraints.
Multicolor flow cytometric analysis was performed on whole blood (WB) or cell suspensions using predetermined optimal concentrations of the following fluorescently conjugated monoclonal antibodies (MAbs). For WB T cell analysis the following MAbs were used: CD3-allophycocyanin (APC)-Cy7 (clone SP34-2), CD95-phycoerythrin (PE)-Cy5 (clone DX2), Ki67-AF700 (clone B56), HLA-DR-peridinin chlorophyll protein (PerCP)-Cy5.5 (clone G46-6), CCR7-fluorescein isothiocyanate (FITC) (clone 150503), CCR5-APC (clone 3A9), CD62L (clone SK11), and CD45-RA-PE-Cy7 (clone L45) from BD Biosciences; CD8-BV711 (clone RPA-T8), CD4-BV650 (clone OKT4), and PD-1-BV421 (clone EH12.2H7) from BioLegend; and CD28-ECD (clone CD28-2) from Beckman-Coulter. Flow cytometric acquisition and analysis of samples were performed on at least 100,000 events on an AURORA flow cytometer driven by the SpectroFlo software package (Cytek). Analyses of the acquired data were performed using FlowJo version 10.0.4 software (TreeStar).

[1] = Plasma pharmacokinetics of AZD5582 in infant RMs (HPLC-MS/MS, NCA); type: in vivo, rhesus macaque
Description: As a potential explanation for the dampened virologic response to AZD5582 observed in infant RMs, we investigated AZD5582 pharmacokinetics (PK) following the third dose using a sparse sampling design. Blood samples were collected immediately following infusion in 4 RMs and from 2 RMs per time point at 1 h, 2 h, 4 h, 8 h, and 24 h postinfusion. […] Noncompartmental analysis (NCA) was conducted to determine pharmacokinetic parameters in infants and compared with available PK data from adult historical controls of SIV-infected, ART-suppressed rhesus macaques (n = 7) given matched doses of AZD5582 (Fig. 4B) ([17]). […] Although corresponding data were not collected from adult macaques, we note that in infants the AUC0-24h was calculated as 239 ng × hr/mL.
Plasma samples were collected from RMs over 24 h following the start of a single 30 min intravenous infusion of AZD5582 using a previously published ([17]). A high-performance liquid chromatography-mass spectrometry (HPLC-MS/MS) method with a dynamic range of 0.2 to 1000 ng/mL. Noncompartmental analysis (NCA) was performed using Phoenix64 WinNonlin v8.1 software using the sparse sampling function to derive mean PK parameters. The linear up-log down trapezoidal rule was used to calculate AUC. The terminal elimination rate constant (kel) was estimated by fitting a linear regression line on a semilog plot to the individual concentration data constrained to observations from 4 to 24 h post start of infusion and used to calculate terminal elimination half-life. One observation below the assay’s limit of quantification was imputed at ½ the lower limit of quantification ([35]).

[2] = tested on: SIV gag DNA in CD4+ T cells; assay: Cell-associated SIV DNA / RNA in CD4+ T cells; type: in vivo; conditions: before dose 1, 3dp- and 2wp-AZD5582 treatment, infant RMs
Description: Plasma viral quantification was performed as described previously ([12]). The frozen cell pellet was lysed with proteinase K (100 μg/mL in 10 mM Tris-HCl pH 8) for 1h at 56°C. Quantification of SIVmac gag DNA was performed by quantitative PCR (qPCR) using the 5′ nuclease (TaqMan) assay with an ABI7500 system (PerkinElmer Life Sciences). The sequence of the forward primer for SIVmac gag was 5′-[…]-3′, the reverse primer sequence was 5′-[…]-3′, and the probe sequence was 5′-6-carboxyfluorescein (FAM)-[…]-6-carboxytetramethylrhodamine (TAMRA)-3′. 7.5 μL of cell lysate were mixed in a 50 μL reaction mixture containing 1× Platinum Buffer, 3.5 mM MgCl2, 0.2 mM dNTP, primers 200 nM, probe 150 nM, and 2U Platinum Taq. For cell number quantification, quantitative PCR was performed simultaneously for monkey albumin gene copy number. The sequence of the forward primer for albumin was F 5′-[…]-3′; the reverse primer sequence was 5′- ATGGTCGCCTGTTCACCAA-3′ and the probe sequence was 5′-[…]-3′ ([34]). The reactions were performed on a 7500 real-time PCR system (Applied Biosystems) with the following thermal program: 10 min at 95°C, followed by 40 cycles of denaturation at 95°C for 15 s and annealing at 60°C for 1 min.

[3] = rhesus monkey, in vivo, iv, 0.1 mg/kg

CN[C@@H](C)C(=O)N[C@H](C(=O)N1CCC[C@H]1C(=O)N[C@H]1c2ccccc2C[C@H]1OCC#CC#CCO[C@@H]1Cc2ccccc2[C@@H]1NC(=O)[C@@H]1CCCN1C(=O)[C@@H](NC(=O)[C@H](C)NC)C1CCCCC1)C1CCCCC1 [AZD5582]
Mean Ki67 expression in peripheral memory CD4+ T cells (memory CD4+ T cells; 3-days post-AZD5582 (doses 1, 3, 6, 9), P = 0.02): 28.4% | Ki67 expression in memory CD4+ T cells (memory CD4+ T cells; 7 days following dose 1): 46.9% | Ki67 expression in memory CD4+ T cells (memory CD4+ T cells; before the increase seen after dose 1): 8.7% | Other markers of activation, including HLA-DR and PD-1 (memory CD4+ T cells; T cells following AZD5582 treatment, infant RMs): did not observe increases | Mean Ki67 expression in peripheral memory CD4+ T cells (memory CD4+ T cells; baseline (immediately before doses 1, 3, 6, 9)): 21.0% | Average increase of Ki67 expression in memory CD4+ T cells after dose 1 (memory CD4+ T cells; relative to three baseline measurements, treated infant RMs): 24.3% | Fold lower AUC0-2h in infants compared with adults ([1]; infant vs adult RMs): 2.3 fold | AUC0-2h [1, 3]: 223 ng·h/mL | AUC0-24h [1, 3]: 239 ng·h/mL | Cmax [1, 3]: 294 ng/mL | t1/2 (terminal elimination halflife) [1, 3]: 9.9 h | Cell-associated SIV RNA in peripheral CD4+ T cells [2]: remained stable
